Legend:
GRE-tk promoter = experiment: Regulation of transcription in transfected Hela cells: transactivation (GRE-tk-CAT plasmid); assay type: cell-based; conditions: 24 hours, CAT ELISA
Protocol: (§1) The molecules according to the invention have been tested in models of HELA cells transfected with the GRE-tk-CAT plasmid (transactivation), or with the pColl-CAT plasmid (transrepression). (Cf. TEST 1)
(§2) I) Study of the regulation of transcription in transfected Hela cells.
(§3) Hela cells (ATCC ref: CCL-2) are distributed in a 6-well plate, in a nutritive medium with a density of 4×10^5 cells/ml, 24 hours before the transfection, and are incubated at 37° C. The transitory transfections are produced according to the precipitate method with calcium phosphate. In the case of the study of transactivation, the cells are transfected with 1 μg of GRE-tk-CAT plasmid, 1 μg of polyII β-GAL plasmid and KS plasmid (Stratagene), s.q.f. 5 μg. In the case of the study of transrepression, the cells are transfected with 3 μg of Coll (−517/+63) CAT plasmid, 250 ng of pSV-cjun plasmid, 1 μg of polyII β-GAL plasmid and KS plasmid (Stratagene), s.q.f. 5 μg. The precipitate is left in contact with the cells for 16 hours. These are then rinsed and covered with the nutritive medium containing different concentrations of Dexamethasone or the products to be studied (10^−9M, 10^−8M, 10^−7M, 10^−6M). 24 hours after the addition of the products, the cells are lysed in 250 μl of MOPS-NaCl-Triton X-100 buffer. The CAT is dosed in the cellular extracts using the ELISA Kit (Boehringer Mannheim).

collagenase promoter = experiment: Regulation of transcription in transfected Hela cells: transrepression (Coll (-517/+63) CAT plasmid); assay type: cell-based; conditions: 24 hours, CAT ELISA; for inhibition at 1 µM / inhibition at 0.1 µM / inhibition at 0.01 µM / inhibition at 0.001 µM: Homo sapiens
Protocol: as §1, §2, §3

Female Wistar rats [1] = experiment: Granuloma test (cotton pellets), anti-inflammatory activity; assay type: in vivo; conditions: rat, oral route, once a day for four days
Protocol: (§4) Granuloma Test—Thymolytic Activity
(§5) The anti-inflammatory activity was studied according to the standard granuloma test. The technique used is a modification of the method of Meier and Coll. (Experentia, 1950, 6, 469). Female Wistar rats, weighing 90 to 100 g, receive an implantation of two cotton pellets of 10 mg each under the skin of the thorax. The products are immediately administered by oral route, a the rate of once a day for four days. The animals are then sacrificed. The pellets surrounded by the granuloma tissue formed, are weighed in the fresh state, then after eighteen hours at 60° C. The weight of the granuloma is obtained by deduction of the initial weight of the cotton.

Female Wistar rats [2] = experiment: Thymolytic activity (thymus weight in granuloma test); assay type: in vivo; conditions: rat, oral route, once a day for four days
Protocol: as §4, §5
The thymuses are also removed and weighed in order to determine the thymolytic activity of the products.

male mice = experiment: Ear oedema test induced by croton oil; assay type: in vivo; conditions: applied to the ear, 6 hours
Protocol: Ear Oedema Test Induced by Croton Oil
The products have also been tested in the model of the ear oedema of mice using croton oil according to the method described in Tonelli et al. (Endocrinology, 1965, 77, 625-634). An ear oedema is induced in male mice weighing 18 to 22 g, by using croton oil (2% v/v) in a pyridine-water-ether solution 4:1:14.6 (by volume). The animals are sacrificed 6 hours later, the ears are removed and weighed. The difference in weight between the ear treated with croton oil and the contralateral ear (non-treated) allows 100% of the oedema to be determined. The products to be tested are dissolved in the solution of croton oil and applied to the ear.

Male Wistar rats = experiment: Retarded hypersensitivity test (M. Tuberculosis), immunosuppressive activity; assay type: in vivo; conditions: oral route from day 4 to 7, paw oedema 24 hours after antigen; for ED50: Mycobacterium tuberculosis, 4TO7, rat, read-out: Retarded hypersensitivity (M. Tuberculosis, rat) ED 50
Protocol: 3) Immunosuppressive Activity.
The immunosuppressive activity was studied according to the retarded hypersensitivity test described in the article by Hambleton et al. (Agents and Actions, […], 29, 328). Male Wistar rats weighing 150 to 160 g are sensitized on day 0 with a suspension of Mycobacterium Tuberculosis 4 mg/ml in parrafin oil by a sub-cutaneous injection at the base of the tail (0.1 ml/animal).
The products are administered by oral route from day 4 to 7.
On day 7, one hour after the last administration, the animals receive an injection of the soluble fraction of the antigen triggering the hypersensitivity reaction: 0.4 mg/rat in 0.2 ml by intraplantar route in a rear paw, the other receives the same quantity of solvent.
The oedema is measured 24 hours afterwards using an UGO BASIL plethysmometer from APELEX.
The activity of the products is evaluated by the percentage reduction in the increase of the injected paw relative to that of the control animals.

CSCC(=O)[C@H]1[C@H](C)C[C@H]2[C@@H]3CCC4=CC(=O)C=C[C@]4(C)[C@@]3(F)[C@@H](O)C[C@@]21C [Example 1, 9α-fluoro-11β-hydroxy-16α-methyl-21-thiomethyl-pregna-1,4-diene-3,20-dione]
Activation of GRE-tk (%) (GRE-tk promoter; 10^-6 M): 37.56 +/− 1.9% | Activation of GRE-tk (%) (GRE-tk promoter; 10^-7 M): 35.21 +/− 2.24% | Activation of GRE-tk (%) (GRE-tk promoter; 10^-8 M): 27.74 +/− 1.05% | Activation of GRE-tk (%) (GRE-tk promoter; 10^-9 M): 3.78 +/− 0.87% | Inhibition of the Coll promoter (%) (collagenase promoter; 10^-6 M): 81.79 +/− 2.98% | Inhibition of the Coll promoter (%) (collagenase promoter; 10^-7 M): 57.61 +/− 2.46% | Inhibition of the Coll promoter (%) (collagenase promoter; 10^-8 M): 37.12 +/− 6.7% | Inhibition of the Coll promoter (%) (collagenase promoter; 10^-9 M): 3.57 +/− 3.09% | Granuloma ED 50 (Female Wistar rats [1]): 5 mg/kg/po | Thymolysis ED 50 (Female Wistar rats [2]): 2.5 mg/kg/po | Oedema using croton oil (mouse) ED 50 (male mice): 10 μg/ear | Retarded hypersensitivity (M. Tuberculosis, rat) ED 50 (Male Wistar rats): 2.3 mg/kg

C[C@@H]1C[C@H]2[C@@H]3CCC4=CC(=O)C=C[C@]4(C)[C@@]3(F)[C@@H](O)C[C@]2(C)[C@H]1C(=O)CC#N [Example 2, 9α-fluoro-11β-hydroxy-16α-methyl-pregna-1,4-diene-3,20-dione-21-carbonitrile]
Activation of GRE-tk (%) (GRE-tk promoter; 10^-6 M): 16.92 +/− 3.55% | Activation of GRE-tk (%) (GRE-tk promoter; 10^-7 M): 10.45 +/− 4.33% | Activation of GRE-tk (%) (GRE-tk promoter; 10^-8 M): 1.34 +/− 1.33% | Activation of GRE-tk (%) (GRE-tk promoter; 10^-9 M): 0% | inhibition at 1 µM (collagenase promoter; 10^-6 M): 75.6% | inhibition at 0.1 µM (collagenase promoter; 10^-7 M): 81.3% | inhibition at 0.01 µM (collagenase promoter; 10^-8 M): 36.2% | inhibition at 0.001 µM (collagenase promoter; 10^-9 M): 20.6% | Granuloma ED 50 (Female Wistar rats [1]): >7 mg/kg/po | Thymolysis ED 50 (Female Wistar rats [2]): 2.5 mg/kg/po | Oedema using croton oil (mouse) ED 50 (male mice): 2 μg/ear | ED50 (Male Wistar rats): 1.5 mg/kg

C[C@]12C=CC(=O)C=C1CC[C@@H]1[C@@H]2[C@@H](O)C[C@@]2(C)[C@H]1CC[C@]2(O)C(=O)CO [Prednisolone, reference compound]
Granuloma ED 50 (Female Wistar rats [1]): 2.5 mg/kg/po | Thymolysis ED 50 (Female Wistar rats [2]): 1.6 mg/kg/po | Oedema using croton oil (mouse) ED 50 (male mice): 4 μg/ear | ED50 (Male Wistar rats): 5 to 20 mg/kg

C[C@@H]1C[C@H]2[C@@H]3CCC4=CC(=O)C=C[C@]4(C)[C@@]3(F)[C@@H](O)C[C@]2(C)[C@@]1(O)C(=O)CO [Dexamethasone, reference compound]
Activation of GRE-tk (%) (GRE-tk promoter; 10^-6 M): 98.82 +/− 1.18% | Activation of GRE-tk (%) (GRE-tk promoter; 10^-7 M): 89.48 +/− 2.26% | Activation of GRE-tk (%) (GRE-tk promoter; 10^-8 M): 53.38 +/− 2.65% | Activation of GRE-tk (%) (GRE-tk promoter; 10^-9 M): 7.34 +/− 2.57% | inhibition at 1 µM (collagenase promoter; 10^-6 M): 93.1% | inhibition at 0.1 µM (collagenase promoter; 10^-7 M): 96.6% | inhibition at 0.01 µM (collagenase promoter; 10^-8 M): 87.6% | inhibition at 0.001 µM (collagenase promoter; 10^-9 M): 42.2% | Granuloma ED 50 (Female Wistar rats [1]): 0.1 mg/kg/po | Thymolysis ED 50 (Female Wistar rats [2]): <0.05 mg/kg/po | Oedema using croton oil (mouse) ED 50 (male mice): 1 μg/ear | ED50 (Male Wistar rats): 0.05 mg/kg

From patent US6492536B2, “Steroids, their use as medicaments, their preparation process, the intermediates of this process and the compositions containing them” (Aventis Pharma S.A., priority 1996, dated 2002)
